Test results: patent US20050152995A1, “Methods and compositions for promoting axon regeneration and cell replacement therapy” (priority 2003, published 2005)
Read-outs that look alike come from different tables or passages of the source.

Assays:
[1] = tested on: severed optic nerve (astrocytes, RGC axons); type: in vivo, mouse; settings: for axonal regeneration after optic nerve crush: n=5
Protocol: Optic nerve crush was performed in Bcl-2tg (14) and wild-type littermate mouse pups, prior to the knowledge of genotypes. Regeneration was assessed and corroborated by three labeling methods: anterograde axon tracing, immunofluorescent staining, and retrograde labeling of RGCs that regenerated their axons. […].
To assess the functional significance of astrocyte maturation in optic nerve regeneration, we treated adult (2-3-month-old) wild-type and Bcl-2tg mice with astrotoxin (L-alpha-aminoadipate), which selectively kills astrocytes and has minimal effects on surrounding neurons and myelin (25, 26). Immediately after optic nerve crush, gelform soaked in L-alpha-aminoadipate solution (10 mg/ml in PBS, Sigma) or PBS was placed against the crush site. […] Regenerating axons extended exclusively into the GFAP-negative area and stopped abruptly where GFAP staining reappeared (FIG. 4B, D).
To quantify axonal regeneration, we used electron microscopy to examine optic nerve sections of adult wild-type and Bcl-2tg mice treated with astrotoxin or PBS. Degenerating myelin and tissue debris were found in sections of all groups (FIG. 4I, J). In treated Bcl-2tg mice (n=5), a large number of regenerating axons were seen 0.5 mm posterior to the crush site, an area devoid of astrocytes and their cellular processes (FIG. 4J). […] In contrast, in other three groups, few axons were present in optic nerve sections if they were collected at 0.5 mm posterior to the crush (n=3/group). Regenerating axons were 20-fold more abundant in astrotoxin-treated Bcl-2tg mice than in PBS-treated wild-type mice (P<0.001) (FIG. 4K). Thus, elimination of mature astrocytes promoted robust optic nerve regeneration in adult Bcl-2tg mice.

[2] = tested on: severed optic nerve (astrocytes, RGC axons); type: in vivo, mouse
Protocol: To evaluate the effects of lithium used simultaneously with astrotoxin in optic nerve regeneration in adult mice, an on optic nerve crush was performed in adult mice. Immediately after the optic nerve crush, a piece of gelform soaked in astrotoxin solution or PBS was placed against the crush site. Thereafter, mice were divided into two groups: one group received a diet containing lithium, and the other received a control diet.
Mice were sacrificed on day 8 after the nerve crush to examine axon regeneration.
Surgical procedure: All experimental procedures and use of animals were approved by Animal Care and Use Committee in the Schepens Eye Research Institute and adhered to the ARVO statement for the Use of Animals in Ophthalmic and Vision Research. Adult C57BL/6J mice were anesthetized with a mixture of ketamine (12.5 mg/ml, Sigma) and xylazine (2.5 mg/ml, Sigma) (5 μ/g). Optic nerve was exposed intraorbitally and crushed for 3 seconds using fine forceps. Immediately after nerve crush, a piece of gelfoam soaked with L-α-aminoadipate (10 mg/ml; Sigma) was placed against the crushed site. Gelfoam soaked with phosphate buffered saline (PBS) was used as control. To ensure continued delivery of astrotoxin, the gelfoam was replaced every 3 days post-injury (DPI). Following recovery from the optic nerve surgery, mice were divided into two groups: one group received a diet supplemented with lithium ([…], Bio-Serv), and the other group received a control diet. Mice were sacrificed on 8 DPI, and the mouse serum was collected to determine serum lithium concentration (Medtox Laboratories Inc).
(§1) Retinal histology and immunohistochemistry: The eyeball and optic nerve were dissected out, fixed in 4% paraformaldehyde for 1 hr, cryoprotected and embedded in O.T.C. The tissues were then cryosectioned at 12 μm and subjected to cresyl violet staining or immunohistochemistry. For immunofluorescence labeling, tissue sections were reacted with Cy-3 conjugated mouse anti-GFAP (1:1000, Sigma) or rabbit anti-GAP-43 (1:200, Chemicon). The signal of GAP-43 was then visualized by FITC-conjugated goat anti-rabbit IgG (1:250, Vector Lab.). To detect the expression of Bcl-2 protein, the eyeballs were dissected out and embedded without fixation. Before immunostaining, retinal sections were fixed with acetone that was stored at −20° C. for 15 min and incubated with Bcl-2 antibody (1:50, Transduction lab) followed by reaction with biotinylated anti-mouse IgG (1:100, Vector Lab.) and DTAF-conjugated Streptavidin (1:100, Jackson Lab). The sections were then counter-stained with DAPI (1:150, Sigma) to reveal cell nuclei before they were mounted with Vectashield (Vector Lab) and examined under epifluorescence microscope.
Quantitation of Axon Regeneration: Following staining with anti-GAP-43 antibody, the longest distance of axon regeneration axon was measured from the crushed site in optic nerve sections. At least 4 sections were sampled from each optic nerve, and the measured lengths of regenerating axons were averaged. Statistical significance was determined by One-way ANOVA and Tukey-Kramer multiple comparison tests.

[3] = mice on lithium-containing diet, n=9, 8 DPI
Protocol: To determine whether lithium induces the expression of Bcl-2 in adult retinal neurons in vivo, we fed mice with food chow containing lithium.
Adult C57BL/6J mice were anesthetized with a mixture of ketamine (12.5 mg/ml, Sigma) and xylazine (2.5 mg/ml, Sigma) (5 μ/g). […] Mice were sacrificed on 8 DPI, and the mouse serum was collected to determine serum lithium concentration (Medtox Laboratories Inc).

[4] = tested on: retinal ganglion cells (RGCs)
Protocol: The neuroprotective effect of lithium-containing diet on the survival of fluorogold (FG)-labeled RGCs was assessed.
After sacrificing, whole-mount retinas were prepared. At least 12 non-overlapping areas of the retina were selected randomly and photographed. Surviving RGCs that were labeled with FluoroGold were counted, and the density of survival RGCs was determined.

[5] = tested on: Bcl-2
Text: as §1

[6] = tested on: inner limiting membrane (ILM) of the retina; assay: Retinal transplantation into collagenase-treated wild-type retinas; type: in vivo, mouse; settings: collagenase 100 U/ml, n=4
Protocol: To distinguish implanted cells and their cellular processes from the host environment, we used retinas from mice expressing an enhanced green fluorescent protein (EGFP) transgene driven by a chicken b-actin promoter and cytomegalovirus enhancer (24′). Suspensions of retinal cells from postnatal day 0 (P0) EGFP mice were injected into the subretinal space of adult wild-type or GFAP−/−Vim−/− hosts. […] To confirm that this failure of neural integration into the wild-type hosts was not a result of the site of transplantation, we injected cells into the vitreous cavity (n=4) (FIG. 6B). […] Few neurons migrated and extended neurites into the damaged retinal area but not beyond (FIG. 1B).
To exclude the possibility that this change in the property of the ILM in GFAP−/−Vim−/− mice affected the fate of retinal transplants, we treated wild-type retinas with collagenase (100 U/ml) to break down the ILM (n=4). By comparing with untreated wild-type hosts (n=3), we found no difference in graft cell migration and neurite extension into the retinas of collagenase treated and untreated mice (data not shown).

[7] = adult wild-type mice, day 8 after nerve crush

N[C@@H](CCCC(=O)O)C(=O)O [astrotoxin, L-alpha-aminoadipate]
abundance of regenerating axons relative to PBS-treated wild-type mice ([1]; adult Bcl-2tg mice, electron microscopy, 0.5 mm posterior to the crush, P<0.001): 20 fold
axonal regeneration after optic nerve crush ([1]; adult Bcl-2tg mice): robust regeneration
GFAP immunofluorescence staining in the optic nerve ([1]; adult wild-type and Bcl-2tg mice, 10 mg/ml in PBS on gelform at crush site): created a GFAP-negative area
effect on myelin and neuronal processes ([1]; adult wild-type and Bcl-2tg mice, immunofluorescence staining): no effect
axonal regeneration after optic nerve crush ([1]; adult wild-type mice): a few axons sprouted past the lesion site
GFAP expression along the crushed optic nerve [2, 7]: a region devoid of immunorective astrocytes (GFAP-negative) was generated
axon regeneration (GAP-43 labeling) [2, 7]: no sign of regeneration
length of regenerating axons extending from the crushed site ([2]; anti-GAP-43 immunostaining, day 8 after nerve crush): 50 μm

O=C([O-])[O-].[Li+].[Li+] [lithium, lithium carbonate]
serum concentration of lithium [3]: 0.80±0.15 mEq/l
number of surviving RGCs ([4]; following optic nerve crush, not significant vs control (P>0.05)): 404 /mm^2
density of FG-labeled RGCs ([4]; normal retina): 2134 /mm^2
Bcl-2 mRNA in retina ([5]; RT-PCR, lithium-containing diet vs regular diet): strong induction
Bcl-2 protein expression in retina ([5]; immunostaining, lithium-containing diet): detected in the ganglion cell layer
GFAP expression along the crushed optic nerve ([2]; mouse, in vivo): detected along the entire nerve
axon regeneration (GAP-43 labeling) ([2]; mouse, in vivo): no sign of regeneration
length of regenerating axons extending from the crushed site ([2]; mouse, in vivo): 80 μm

collagenase
graft cell migration and neurite extension into the retina vs untreated hosts [6]: no difference
